Results taken from US12590099B2, “Inhibitors of histone deacetylase useful for the treatment or prevention of HIV infection” (Merck Sharp & Dohme LLC, priority 2018, dated 2026).

Legend:
Assay type in all cases: biochemical
[1] = target: T1, HDAC6 (Homo sapiens, UniProt Q9UBN7); experiment: Human HDAC enzyme inhibitor Fluor-de-Lys assay, HDAC6
T1 sequence (Q9UBN7 1-1215): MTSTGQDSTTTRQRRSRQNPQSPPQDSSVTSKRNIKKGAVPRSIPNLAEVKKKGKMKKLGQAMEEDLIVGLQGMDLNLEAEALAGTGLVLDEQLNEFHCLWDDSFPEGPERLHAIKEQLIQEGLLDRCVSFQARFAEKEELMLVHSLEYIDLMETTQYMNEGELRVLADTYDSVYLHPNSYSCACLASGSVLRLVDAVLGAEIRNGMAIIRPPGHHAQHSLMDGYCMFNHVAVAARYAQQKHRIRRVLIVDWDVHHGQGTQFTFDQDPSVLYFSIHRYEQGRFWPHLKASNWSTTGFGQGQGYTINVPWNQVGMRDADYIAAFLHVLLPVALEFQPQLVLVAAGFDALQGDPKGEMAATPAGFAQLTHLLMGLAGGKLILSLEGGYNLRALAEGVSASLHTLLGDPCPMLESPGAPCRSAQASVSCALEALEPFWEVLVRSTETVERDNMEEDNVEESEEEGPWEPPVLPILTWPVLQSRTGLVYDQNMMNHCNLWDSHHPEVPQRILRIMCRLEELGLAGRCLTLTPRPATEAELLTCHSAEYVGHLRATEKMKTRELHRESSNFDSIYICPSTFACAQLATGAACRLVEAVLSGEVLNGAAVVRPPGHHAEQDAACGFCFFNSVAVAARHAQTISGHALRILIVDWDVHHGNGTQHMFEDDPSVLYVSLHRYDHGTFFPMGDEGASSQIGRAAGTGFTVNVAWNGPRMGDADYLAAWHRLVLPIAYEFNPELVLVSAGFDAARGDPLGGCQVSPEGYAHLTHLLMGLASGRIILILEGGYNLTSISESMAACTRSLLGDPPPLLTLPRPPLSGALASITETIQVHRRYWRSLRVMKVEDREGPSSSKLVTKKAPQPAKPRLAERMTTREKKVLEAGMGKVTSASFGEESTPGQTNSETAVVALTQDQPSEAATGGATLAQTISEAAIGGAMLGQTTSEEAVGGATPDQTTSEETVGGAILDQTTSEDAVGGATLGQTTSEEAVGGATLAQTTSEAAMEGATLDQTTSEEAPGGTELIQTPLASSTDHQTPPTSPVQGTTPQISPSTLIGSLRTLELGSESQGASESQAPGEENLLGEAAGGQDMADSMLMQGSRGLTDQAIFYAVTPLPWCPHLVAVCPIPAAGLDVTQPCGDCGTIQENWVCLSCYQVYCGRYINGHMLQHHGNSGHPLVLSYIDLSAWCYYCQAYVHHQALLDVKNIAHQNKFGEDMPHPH

[2] = target: T2, Recombinant human HDAC2 (Homo sapiens, UniProt Q92769); experiment: Human HDAC enzyme inhibitor Fluor-de-Lys assay, HDAC2
T2 construct: Full length human HDAC2-FLAG was expressed in baculovirus infected Sf9 cells; FLAG (C); made in house; host or cells: Sf9 (baculovirus)
T2 sequence (Q92769 whole entry): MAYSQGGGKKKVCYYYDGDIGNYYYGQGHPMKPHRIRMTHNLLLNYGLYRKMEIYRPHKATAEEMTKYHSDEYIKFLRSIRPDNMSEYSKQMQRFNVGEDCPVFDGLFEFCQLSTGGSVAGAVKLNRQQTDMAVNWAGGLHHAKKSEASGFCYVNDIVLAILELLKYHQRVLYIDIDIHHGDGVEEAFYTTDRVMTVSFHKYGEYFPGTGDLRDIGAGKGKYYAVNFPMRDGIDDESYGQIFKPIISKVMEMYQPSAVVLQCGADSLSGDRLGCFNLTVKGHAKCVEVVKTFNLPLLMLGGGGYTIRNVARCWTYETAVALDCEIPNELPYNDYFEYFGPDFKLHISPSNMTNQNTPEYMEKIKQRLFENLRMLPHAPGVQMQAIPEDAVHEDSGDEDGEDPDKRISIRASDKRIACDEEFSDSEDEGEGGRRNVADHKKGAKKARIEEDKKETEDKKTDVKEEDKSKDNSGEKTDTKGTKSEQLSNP
Method in brief: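 Fluor-de-Lys format at room temperature (23° C.): compounds titrated 10-point, 1:3, preincubated with HDAC before substrate addition. Developer with excess HDAC inhibitor ends the reaction, and trypsin-liberated AMC fluorescence is the read-out.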

[3] = target: T3, Recombinant human HDAC1 (Homo sapiens, UniProt Q13547); experiment: Human HDAC enzyme inhibitor Fluor-de-Lys assay, HDAC1
T3 construct: FLAG (C); made in house
T3 sequence (Q13547 whole entry): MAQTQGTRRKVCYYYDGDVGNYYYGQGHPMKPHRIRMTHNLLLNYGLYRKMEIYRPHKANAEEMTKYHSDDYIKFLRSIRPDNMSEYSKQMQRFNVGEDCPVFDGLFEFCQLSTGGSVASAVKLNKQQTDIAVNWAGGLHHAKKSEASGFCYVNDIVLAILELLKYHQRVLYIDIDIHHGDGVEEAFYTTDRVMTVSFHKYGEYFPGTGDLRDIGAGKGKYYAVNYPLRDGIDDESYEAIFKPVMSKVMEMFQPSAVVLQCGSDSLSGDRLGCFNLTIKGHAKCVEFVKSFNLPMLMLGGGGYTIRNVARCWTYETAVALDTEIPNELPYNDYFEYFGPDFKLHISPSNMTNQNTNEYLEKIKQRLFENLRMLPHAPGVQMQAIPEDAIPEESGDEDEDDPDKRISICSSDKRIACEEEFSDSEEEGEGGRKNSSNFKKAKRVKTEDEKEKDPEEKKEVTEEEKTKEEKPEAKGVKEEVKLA
Method in brief: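 Fluor-de-Lys format at room temperature (23° C.): compounds titrated 10-point, 1:3, preincubated with HDAC before substrate addition; HDAC1 run at 0.3 nM enzyme with 20 μM BML-KI104. Developer with excess HDAC inhibitor ends the reaction, and trypsin-liberated AMC fluorescence is the read-out.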

[4] = target: T4, Recombinant human HDAC8 (Homo sapiens, UniProt Q9BY41); experiment: Human HDAC enzyme inhibitor Fluor-de-Lys assay, HDAC8
T4 construct: purchased Enzo Life Sciences BML-SE145-0100
T4 sequence (Q9BY41 1-377): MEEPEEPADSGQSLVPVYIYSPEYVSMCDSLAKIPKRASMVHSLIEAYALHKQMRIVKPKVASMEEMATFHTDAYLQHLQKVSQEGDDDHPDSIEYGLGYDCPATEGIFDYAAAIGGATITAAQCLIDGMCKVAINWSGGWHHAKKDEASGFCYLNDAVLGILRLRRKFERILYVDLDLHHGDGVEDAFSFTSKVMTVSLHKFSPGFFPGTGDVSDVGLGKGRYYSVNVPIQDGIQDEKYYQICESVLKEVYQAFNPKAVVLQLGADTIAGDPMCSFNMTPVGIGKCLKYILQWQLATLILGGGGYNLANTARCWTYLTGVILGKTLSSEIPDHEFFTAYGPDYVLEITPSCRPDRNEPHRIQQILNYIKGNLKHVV

SMILES	IC50 [1] [nM]	IC50 [2] [nM]	IC50 [3] [nM]	IC50 [4] [nM]
CCC(=O)CCCCC[C@H](NC(=O)C1=NOC2(CCN(CC3CC3)CC2)C1)c1ncc(-c2cc3ccc(C)nc3cc2OC)[nH]1 [Compound 219]	> 900	1.8	0.1	> 900
CCC(=O)CCCCC[C@H](NC(=O)[C@H]1CC12CCN(C)CC2)c1ncc(-c2cc3ccccc3nc2OC)o1 [Compound 77]	198	4.8	1.53	21700
